From publication PMC6271870, “Study on the Synthesis, Biological Activity and Spectroscopy of Naphthalimide-Diamine Conjugates” (Molecules, 2014)

Legend:
herring sperm DNA-EB = assay: Fluorescence quenching of DNA-EB complex by compound (EB displacement); type: binding; conditions: DNA-EB quenched by 7f
Text: Ethidium bromide (EB) is a well known DNA intercalator, which is often used as a spectral probe to establish the mode of binding of small molecules to double-helical DNA [41]. The ﬂuorescence of EB increases after binding with DNA due to intercalation. Like EB, if naphthalimides intercalate into the helix of DNA, it would compete with EB for its intercalation sites in DNA, and the displacement of EB from the DNA–EB complex leads to a signiﬁcant decrease in the ﬂuorescence intensity of the DNA-EB complex. Therefore, herring sperm DNA-EB complex in the presence of increasing concentrations of naphthalimide-diamine conjugate 7f was also measured.
The Stern–Volmer equation is the following: F0/F = 1+ KSVc = 1+ […] where F0 and F are the ﬂuorescence intensities in the absence and presence of quencher (DNA for compound 7f or compound 7f for DNA-EB, respectively), KSV is the Stern-Volmer quenching constant, [c] is the concentration of DNA (or compound 7f), Kq is the biomolecule quenching rate constant and Kq = KSV/τ0. τ0 is the average lifetime of the molecule without any quencher and the ﬂuorescence lifetime of the biopolymer is 10^−8 s. The Stern–Volmer plots of F0/F versus [c] at the three temperatures were shown in Figure 9 and Figure 10, and the calculated KSV and Kq values were presented in Table 2 and Table 3.
When small molecules bind independently to a set of equivalent sites in a macromolecule, the binding constant (Kb) can be determined by the following equation [40, 52]: log[1/c] = log [F/(F0 − F)] + logKb(3) where Kb denotes the binding constant for interaction of naphthalimide–DNA, and F0, F, [c] have the same meanings as in Equation (2).
There are several acting forces between a small organic molecule and biomacromolecules, such as hydrophobic force, hydrogen bond, van der Waals force, electrostatic interactions, etc. […]

herring sperm DNA = assay: Iodide (KI) fluorescence quenching in absence and presence of DNA; type: binding; conditions: KI quencher
Text: A highly negatively charged quencher is expected to be repelled by the negatively charged phosphate backbone of DNA, therefore an intercalative bound drug molecules should be protected from being quenched by anionic quencher, but the free aqueous complexes or groove binding drugs should be quenched readily by anionic quenchers. At the same time, whether the quencher accesses to fluorophore also plays a role in free and bound one.
Negatively charged I^− was selected for this purpose. The quenching constants (Ksv) were obtained from the Stern–Volmer equation. […]
Solution of compound 7f (0.5 mL, 2.00 × 10^−4 mol/L and herring sperm DNA 0.5 mL ([…]) in Tris-HCl (pH = 7.4) were mixed with 0.0, 0.10, 0.20, 0.30, 0.60, 0.90 1.20, 1.50, 1.80, 2.10, 2.40, 2.70 and 3.00 of KI (2.0 × 10^−2 mol∙L^−1) respectively. Meanwhile, 0.5 mL solution of compound 7f (2.00 × 10^−4 mol/L was only mixed with 0.0, 0.10, 0.20, 0.30, 0.60, 0.90 1.20, 1.50, 1.80, 2.10, 2.40, 2.70 and 3.00 mL of KI (2.0 × 10^−2 mol∙L^−1) respectively. The mixture was diluted to 5 mL with Tris-HCl (pH = 7.4). Thus, samples were prepared in the concentration of KI at 0.0, 400, 800, 1,200, 2,400, 3,600, 4,800, 6,000, 7,200, 8,400, 9,600, 10,800, 12,000 × 10^−6 mol∙L^−1. […] Fluorescence wavelengths and intensity areas of samples were measured at following conditions: EX = 345 nm, EM = 355~600 nm.

Cl.Cl.NCCCCNCCCN1C(=O)c2cccc3cccc(c23)C1=O [Compound 7f, 2-[3-(4-Aminobutylamino)propyl]1H-benz-[de]isoquinoline-1,3(2H)-dione dihydrochloride]
KSV (Stern-Volmer quenching constant) (herring sperm DNA-EB; 298 K): 5028 L/mol
KSV (Stern-Volmer quenching constant) (herring sperm DNA-EB; 303 K): 4564 L/mol
KSV (Stern-Volmer quenching constant) (herring sperm DNA-EB; 310 K): 4176 L/mol
Ksv with I^− ion (herring sperm DNA; absence of DNA, 7f 20 × 10^−6 mol∙L^−1): 38.178 L/mol
Ksv with I^− ion (herring sperm DNA; presence of DNA 22.84 × 10^−6 mol∙L^−1, 7f 20 × 10^−6 mol∙L^−1): 31.575 L/mol
